Laboratory results reported in US12479847B2 (DANA-FARBER CANCER INSTITUTE, INC., priority 2019, dated 2025).
Read-outs that look alike come from different tables or passages of the source.

Key:
Experiment in all cases: KINOMEscan (ScanMAX) kinase profiling
Format in all cases: binding
[1] = target: T1, panel of 468 kinases (Homo sapiens, UniProt Q5VT25); settings: MRCKA; 1 μM; read-out: % control
T1 construct: purchased KINOMEscan (ScanMAX) service

[2] = target: T2, panel of 468 kinases (Homo sapiens, UniProt Q86Y07); settings: VRK2; 1 μM; read-out: % control
T2 construct: purchased KINOMEscan (ScanMAX) service

[3] = target: T3, panel of 468 kinases (Homo sapiens, UniProt P08581); settings: MET; 1 μM; read-out: % control
T3 construct: purchased KINOMEscan (ScanMAX) service

[4] = target: T4, panel of 468 kinases (Homo sapiens, UniProt Q8IW41); settings: MAPKAPK5; 1 μM; read-out: % control
T4 construct: purchased KINOMEscan (ScanMAX) service
T4 sequence (Q8IW41 1-473): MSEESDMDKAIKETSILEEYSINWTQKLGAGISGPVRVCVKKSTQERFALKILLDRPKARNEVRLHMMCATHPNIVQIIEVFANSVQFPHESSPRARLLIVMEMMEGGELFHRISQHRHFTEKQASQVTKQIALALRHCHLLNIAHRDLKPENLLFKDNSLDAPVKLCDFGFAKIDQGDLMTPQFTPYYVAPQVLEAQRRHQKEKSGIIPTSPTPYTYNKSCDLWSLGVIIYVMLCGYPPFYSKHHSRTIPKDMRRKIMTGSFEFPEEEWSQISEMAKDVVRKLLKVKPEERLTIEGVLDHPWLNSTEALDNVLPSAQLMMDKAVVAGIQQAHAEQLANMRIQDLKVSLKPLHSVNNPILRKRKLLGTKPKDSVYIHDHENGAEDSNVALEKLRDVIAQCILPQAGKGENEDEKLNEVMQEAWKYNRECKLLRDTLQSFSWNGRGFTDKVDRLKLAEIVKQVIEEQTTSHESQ

[5] = target: T5, panel of 468 kinases (Homo sapiens, UniProt Q9NQU5); settings: PAK6; 1 μM; read-out: % control
T5 construct: purchased KINOMEscan (ScanMAX) service

[6] = target: T6, panel of 468 kinases (Homo sapiens, UniProt P08069); settings: IGF1R; 1 μM; read-out: % control
T6 construct: purchased KINOMEscan (ScanMAX) service

[7] = target: T7, panel of 468 kinases (Homo sapiens, UniProt P42336, E545K); settings: PIK3CA(E545K); 1 μM; read-out: % control
T7 construct: purchased KINOMEscan (ScanMAX) service

[8] = target: T8, panel of 468 kinases (Homo sapiens, UniProt P07949, V804M); settings: RET(V804M); 1 μM; read-out: % control
T8 construct: purchased KINOMEscan (ScanMAX) service

[9] = target: T9, panel of 468 kinases (Homo sapiens, UniProt P53350); settings: PLK1; 1 μM; read-out: % control
T9 construct: purchased KINOMEscan (ScanMAX) service

[10] = target: T10, panel of 468 kinases (Homo sapiens, UniProt Q16512); settings: PKN1; 1 μM; read-out: % control
T10 construct: purchased KINOMEscan (ScanMAX) service

[11] = target: T11, panel of 468 kinases (Homo sapiens, UniProt P00519, E255K); settings: ABL1(E255K)-phosphorylated; 1 μM; read-out: % control
T11 construct: purchased KINOMEscan (ScanMAX) service

[12] = target: T12, panel of 468 kinases (Homo sapiens, UniProt Q15746); settings: MYLK; 1 μM; read-out: % control
T12 construct: purchased KINOMEscan (ScanMAX) service

[13] = target: T13, panel of 468 kinases (Homo sapiens, UniProt Q9BQI3); settings: EIF2AK1; 1 μM; read-out: % control
T13 construct: purchased KINOMEscan (ScanMAX) service

[14] = target: T14, panel of 468 kinases (Homo sapiens, UniProt P09769); settings: FGR; 1 μM; read-out: % control
T14 construct: purchased KINOMEscan (ScanMAX) service

[15] = target: T15, panel of 468 kinases (Homo sapiens, UniProt O00141); settings: SGK; 1 μM; read-out: % control
T15 construct: purchased KINOMEscan (ScanMAX) service
T15 sequence (O00141 1-431): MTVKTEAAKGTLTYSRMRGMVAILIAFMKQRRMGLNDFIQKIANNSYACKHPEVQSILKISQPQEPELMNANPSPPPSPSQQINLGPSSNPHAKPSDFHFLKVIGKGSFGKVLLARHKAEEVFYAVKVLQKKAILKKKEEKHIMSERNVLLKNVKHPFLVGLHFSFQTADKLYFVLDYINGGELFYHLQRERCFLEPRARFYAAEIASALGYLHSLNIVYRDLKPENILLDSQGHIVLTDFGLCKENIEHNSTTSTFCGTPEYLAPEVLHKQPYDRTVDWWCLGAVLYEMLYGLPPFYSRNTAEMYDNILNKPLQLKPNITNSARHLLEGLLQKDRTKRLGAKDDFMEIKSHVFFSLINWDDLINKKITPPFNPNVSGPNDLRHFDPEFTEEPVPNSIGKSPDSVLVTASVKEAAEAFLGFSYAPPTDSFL

[16] = target: T16, panel of 468 kinases (Homo sapiens, UniProt P00519, Q252H); settings: 1 μM, read-out: % control
T16 construct: purchased KINOMEscan (ScanMAX) service

T7 sequence (P42336 whole entry E545K): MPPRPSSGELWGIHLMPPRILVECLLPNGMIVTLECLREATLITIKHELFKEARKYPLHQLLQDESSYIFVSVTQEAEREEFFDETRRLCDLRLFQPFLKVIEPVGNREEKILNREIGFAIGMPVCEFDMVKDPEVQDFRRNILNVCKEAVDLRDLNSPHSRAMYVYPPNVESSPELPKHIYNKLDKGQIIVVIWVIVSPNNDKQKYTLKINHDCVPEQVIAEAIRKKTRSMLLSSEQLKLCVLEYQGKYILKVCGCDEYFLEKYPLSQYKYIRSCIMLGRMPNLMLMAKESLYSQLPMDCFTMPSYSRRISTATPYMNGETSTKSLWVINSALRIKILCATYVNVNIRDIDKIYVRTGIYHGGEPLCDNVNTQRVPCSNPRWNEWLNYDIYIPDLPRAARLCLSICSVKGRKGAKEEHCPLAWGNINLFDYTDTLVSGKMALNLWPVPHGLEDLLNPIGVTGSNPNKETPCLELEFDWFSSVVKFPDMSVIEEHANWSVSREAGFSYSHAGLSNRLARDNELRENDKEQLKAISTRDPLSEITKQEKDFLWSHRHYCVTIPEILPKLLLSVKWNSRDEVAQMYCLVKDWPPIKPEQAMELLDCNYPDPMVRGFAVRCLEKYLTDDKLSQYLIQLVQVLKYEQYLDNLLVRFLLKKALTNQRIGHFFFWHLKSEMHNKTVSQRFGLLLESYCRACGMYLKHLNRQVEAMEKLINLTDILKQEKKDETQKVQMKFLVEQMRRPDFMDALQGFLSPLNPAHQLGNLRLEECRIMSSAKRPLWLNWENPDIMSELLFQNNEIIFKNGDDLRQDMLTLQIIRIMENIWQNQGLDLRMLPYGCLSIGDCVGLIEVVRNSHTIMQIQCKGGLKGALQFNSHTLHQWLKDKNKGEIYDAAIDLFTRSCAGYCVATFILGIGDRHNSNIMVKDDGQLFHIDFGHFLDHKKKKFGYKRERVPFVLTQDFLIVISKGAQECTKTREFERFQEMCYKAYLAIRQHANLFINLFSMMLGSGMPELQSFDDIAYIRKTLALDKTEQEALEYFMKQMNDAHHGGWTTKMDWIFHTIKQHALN
T3 sequence (P08581 25-1390): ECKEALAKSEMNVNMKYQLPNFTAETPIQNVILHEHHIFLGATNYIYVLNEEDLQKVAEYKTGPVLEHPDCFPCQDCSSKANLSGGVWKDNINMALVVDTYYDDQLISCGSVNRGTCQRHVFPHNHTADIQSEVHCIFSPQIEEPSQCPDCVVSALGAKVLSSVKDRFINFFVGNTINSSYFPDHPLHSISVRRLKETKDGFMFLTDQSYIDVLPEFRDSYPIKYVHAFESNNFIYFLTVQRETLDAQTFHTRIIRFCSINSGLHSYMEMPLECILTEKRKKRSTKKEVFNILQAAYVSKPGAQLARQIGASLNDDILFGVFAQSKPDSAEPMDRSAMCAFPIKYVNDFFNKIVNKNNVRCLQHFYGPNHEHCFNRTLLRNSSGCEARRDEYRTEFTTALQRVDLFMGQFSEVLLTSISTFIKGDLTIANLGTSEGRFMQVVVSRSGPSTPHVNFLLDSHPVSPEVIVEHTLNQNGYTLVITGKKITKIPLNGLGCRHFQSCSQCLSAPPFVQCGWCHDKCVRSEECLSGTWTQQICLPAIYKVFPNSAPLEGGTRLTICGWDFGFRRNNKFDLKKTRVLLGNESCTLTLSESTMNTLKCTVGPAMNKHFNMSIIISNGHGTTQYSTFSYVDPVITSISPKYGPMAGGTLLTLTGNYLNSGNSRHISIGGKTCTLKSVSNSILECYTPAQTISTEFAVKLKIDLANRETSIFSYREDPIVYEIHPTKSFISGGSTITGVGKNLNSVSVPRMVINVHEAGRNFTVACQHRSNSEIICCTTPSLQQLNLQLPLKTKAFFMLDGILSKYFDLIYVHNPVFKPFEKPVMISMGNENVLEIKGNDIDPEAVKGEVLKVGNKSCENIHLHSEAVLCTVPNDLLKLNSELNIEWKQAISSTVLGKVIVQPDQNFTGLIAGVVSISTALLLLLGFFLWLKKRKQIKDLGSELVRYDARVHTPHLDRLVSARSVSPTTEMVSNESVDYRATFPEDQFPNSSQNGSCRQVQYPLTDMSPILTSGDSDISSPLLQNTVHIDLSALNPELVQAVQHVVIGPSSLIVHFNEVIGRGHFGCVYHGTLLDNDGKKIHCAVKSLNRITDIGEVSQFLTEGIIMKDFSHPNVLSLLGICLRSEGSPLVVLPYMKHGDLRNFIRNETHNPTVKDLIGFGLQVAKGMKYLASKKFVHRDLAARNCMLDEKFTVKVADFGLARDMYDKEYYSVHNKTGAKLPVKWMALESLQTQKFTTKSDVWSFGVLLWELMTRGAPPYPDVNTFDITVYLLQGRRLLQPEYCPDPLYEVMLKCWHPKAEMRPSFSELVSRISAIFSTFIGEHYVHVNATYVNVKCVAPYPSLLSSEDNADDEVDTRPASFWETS
T1 sequence (Q5VT25 whole entry): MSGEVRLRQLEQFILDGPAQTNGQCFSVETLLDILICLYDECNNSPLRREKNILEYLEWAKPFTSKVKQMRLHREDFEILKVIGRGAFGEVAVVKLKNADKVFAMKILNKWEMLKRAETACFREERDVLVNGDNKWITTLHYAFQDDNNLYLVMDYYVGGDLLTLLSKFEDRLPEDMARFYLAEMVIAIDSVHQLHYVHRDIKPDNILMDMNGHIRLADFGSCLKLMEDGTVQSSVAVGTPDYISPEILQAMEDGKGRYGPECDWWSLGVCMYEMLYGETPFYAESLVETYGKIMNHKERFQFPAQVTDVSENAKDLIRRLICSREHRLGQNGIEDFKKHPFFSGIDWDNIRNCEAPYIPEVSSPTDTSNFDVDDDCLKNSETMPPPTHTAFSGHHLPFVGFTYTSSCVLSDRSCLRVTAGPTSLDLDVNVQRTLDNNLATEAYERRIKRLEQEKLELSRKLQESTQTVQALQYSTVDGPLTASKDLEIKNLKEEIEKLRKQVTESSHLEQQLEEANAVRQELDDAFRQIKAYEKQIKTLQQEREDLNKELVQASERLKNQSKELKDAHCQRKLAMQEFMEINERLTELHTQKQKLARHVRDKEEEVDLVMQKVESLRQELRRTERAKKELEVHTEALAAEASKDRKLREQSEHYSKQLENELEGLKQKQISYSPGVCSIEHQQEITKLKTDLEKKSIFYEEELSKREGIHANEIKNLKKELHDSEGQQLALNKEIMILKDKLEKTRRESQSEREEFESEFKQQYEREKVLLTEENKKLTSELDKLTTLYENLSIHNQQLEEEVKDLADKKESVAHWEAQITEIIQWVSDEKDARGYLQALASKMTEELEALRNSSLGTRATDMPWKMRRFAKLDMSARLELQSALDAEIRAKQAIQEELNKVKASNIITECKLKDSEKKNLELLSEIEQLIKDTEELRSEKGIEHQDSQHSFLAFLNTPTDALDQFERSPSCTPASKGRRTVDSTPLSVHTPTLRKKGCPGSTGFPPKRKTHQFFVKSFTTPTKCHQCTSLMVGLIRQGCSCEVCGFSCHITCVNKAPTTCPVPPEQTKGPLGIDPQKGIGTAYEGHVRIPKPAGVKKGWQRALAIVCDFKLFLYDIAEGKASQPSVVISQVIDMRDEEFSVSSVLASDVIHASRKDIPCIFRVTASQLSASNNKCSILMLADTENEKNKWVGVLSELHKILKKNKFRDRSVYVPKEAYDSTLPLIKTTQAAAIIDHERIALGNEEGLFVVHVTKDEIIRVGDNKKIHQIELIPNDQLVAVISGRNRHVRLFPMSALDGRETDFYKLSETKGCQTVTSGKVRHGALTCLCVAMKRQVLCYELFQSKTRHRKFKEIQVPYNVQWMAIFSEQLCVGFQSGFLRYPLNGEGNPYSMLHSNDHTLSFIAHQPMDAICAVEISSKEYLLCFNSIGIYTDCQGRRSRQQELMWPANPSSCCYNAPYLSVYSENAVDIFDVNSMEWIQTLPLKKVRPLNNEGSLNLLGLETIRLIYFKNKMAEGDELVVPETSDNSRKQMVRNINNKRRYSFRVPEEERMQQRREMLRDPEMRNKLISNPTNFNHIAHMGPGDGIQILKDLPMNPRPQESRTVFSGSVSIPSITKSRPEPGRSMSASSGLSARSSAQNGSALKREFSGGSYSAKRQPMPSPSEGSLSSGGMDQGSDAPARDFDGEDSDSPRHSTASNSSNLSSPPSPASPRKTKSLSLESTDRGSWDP
T13 sequence (Q9BQI3 whole entry): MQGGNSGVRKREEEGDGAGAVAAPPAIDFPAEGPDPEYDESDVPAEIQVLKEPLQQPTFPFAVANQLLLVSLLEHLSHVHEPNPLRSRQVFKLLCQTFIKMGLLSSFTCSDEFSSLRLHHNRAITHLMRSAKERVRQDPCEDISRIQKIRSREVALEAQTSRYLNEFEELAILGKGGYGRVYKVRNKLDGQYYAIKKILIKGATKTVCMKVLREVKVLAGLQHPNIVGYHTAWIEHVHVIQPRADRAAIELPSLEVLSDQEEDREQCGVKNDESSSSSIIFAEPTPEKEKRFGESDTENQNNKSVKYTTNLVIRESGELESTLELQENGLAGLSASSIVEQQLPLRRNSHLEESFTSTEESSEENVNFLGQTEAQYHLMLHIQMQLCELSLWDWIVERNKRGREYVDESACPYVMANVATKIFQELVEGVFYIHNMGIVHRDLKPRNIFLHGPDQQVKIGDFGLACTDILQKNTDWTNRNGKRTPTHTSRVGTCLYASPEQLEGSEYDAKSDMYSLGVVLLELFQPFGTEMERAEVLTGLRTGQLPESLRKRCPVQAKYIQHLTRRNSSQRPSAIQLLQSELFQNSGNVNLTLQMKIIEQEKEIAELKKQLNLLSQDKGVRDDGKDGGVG

## CNc1nc(Nc2ccc(S(=O)(=O)N3CCC(N4CCOCC4)CC3)cc2OC)nc2[nH]cc(Cl)c12 [Compound 12, 5-chloro-N2-(2-methoxy-4-((4-morpholinopiperidin-1-yl)sulfonyl)phenyl)-N4-methyl-7H-pyrrolo[2,3-d]pyrimidine-2,4-diamine]
[1]
  remaining binding at 1 µM: 100%
[2]
  remaining binding at 1 µM: 94%
[3]
  remaining binding at 1 µM: 100%
[4]
  remaining binding at 1 µM: 67%
[5]
  remaining binding at 1 µM: 100%
[6]
  remaining binding at 1 µM: 100%
[7]
  remaining binding at 1 µM: 89%
[8]
  remaining binding at 1 µM: 96%
[9]
  remaining binding at 1 µM: 82%
[10]
  remaining binding at 1 µM: 100%
[11]
  remaining binding at 1 µM: 92%
[12]
  remaining binding at 1 µM: 8.8%
[13]
  remaining binding at 1 µM: 100%
[14]
  remaining binding at 1 µM: 100%
[15]
  remaining binding at 1 µM: 89%
[16]; ABL1(Q252H)-nonphosphorylated
  remaining binding at 1 µM: 100%
[16]; ABL1(Q252H)-phosphorylated
  remaining binding at 1 µM: 79%

## CNc1nc(Nc2ccc(C(=O)N3CCC(N4CCOCC4)CC3)c3c2OCO3)nc2[nH]cc(Cl)c12 [Compound 75, (7-((5-chloro-4-(methylamino)-7H-pyrrolo[2,3-d]pyrimidin-2-yl)amino)benzo[d][1,3]dioxol-4-yl)(4-morpholinopiperidin-1-yl)methanone]
[1]
  remaining binding at 1 µM: 100%
[2]
  remaining binding at 1 µM: 88%
[3]
  remaining binding at 1 µM: 100%
[4]
  remaining binding at 1 µM: 43%
[5]
  remaining binding at 1 µM: 100%
[6]
  remaining binding at 1 µM: 89%
[7]
  remaining binding at 1 µM: 100%
[8]
  remaining binding at 1 µM: 33%
[9]
  remaining binding at 1 µM: 78%
[10]
  remaining binding at 1 µM: 98%
[11]
  remaining binding at 1 µM: 100%
[12]
  remaining binding at 1 µM: 18%
[13]
  remaining binding at 1 µM: 62%
[14]
  remaining binding at 1 µM: 100%
[15]
  remaining binding at 1 µM: 7.2%
[16]; ABL1(Q252H)-nonphosphorylated
  remaining binding at 1 µM: 100%
[16]; ABL1(Q252H)-phosphorylated
  remaining binding at 1 µM: 57%

## CNc1nc(Nc2ccc(P3(=O)CCN(C4CCOCC4)CC3)cc2OC)nc2[nH]cc(Cl)c12 [Compound 77, 4-(4-((5-chloro-4-(methylamino)-7H-pyrrolo[2,3-d]pyrimidin-2-yl)amino)-3-methoxyphenyl)-1-(tetrahydro-2H-pyran-4-yl)-1,4-azaphosphinane 4-oxide]
[1]
  remaining binding at 1 µM: 92%
[2]
  remaining binding at 1 µM: 89%
[3]
  remaining binding at 1 µM: 100%
[4]
  remaining binding at 1 µM: 46%
[5]
  remaining binding at 1 µM: 95%
[6]
  remaining binding at 1 µM: 100%
[7]
  remaining binding at 1 µM: 94%
[8]
  remaining binding at 1 µM: 97%
[9]
  remaining binding at 1 µM: 86%
[10]
  remaining binding at 1 µM: 99%
[11]
  remaining binding at 1 µM: 100%
[12]
  remaining binding at 1 µM: 0.05%
[13]
  remaining binding at 1 µM: 81%
[14]
  remaining binding at 1 µM: 100%
[15]
  remaining binding at 1 µM: 68%
[16]; ABL1(Q252H)-nonphosphorylated
  remaining binding at 1 µM: 100%
[16]; ABL1(Q252H)-phosphorylated
  remaining binding at 1 µM: 62%
